Reference: PMC13083723 (Patterns, 2026)
Values joined by “and” are separate entries in the source; they are usually repeats but may differ in a detail not shown here. Equal entries are not always repeated. Structures can show the parent of a compound that is named as a salt. Where two headings read alike, the source gives them in different places.

Tests used:
[1] = test system: SARS-CoV-2; conditions: cited from earlier work; for CaCo2 CPE inhibition %: Caco-2, 20 µM; for CaCo2 CPE assay (active): Caco-2
[2] = test system: SARS-CoV-2; conditions: cited from earlier work; for Vero-E6 CPE inhibition %: 10 µM
[3] = test system: Vero-E6 cells; assay: cells; assay type: cell-based
[4] = test system: A549-ACE2 cells; assay: cells; assay type: cell-based; conditions: A549-ACE2, 24 h, read-out: PLD_Effect(%) A549-ACE2
[5] = cited from earlier work
[6] = Chlorocebus sabaeus, Vero C1008, 24 h; read-out: PLD Effect in % 5 µM
[7] = Chlorocebus sabaeus, Vero C1008, 24 h; read-out: PLD Effect in % 10 µM
[8] = Chlorocebus sabaeus, Vero C1008, 24 h; read-out: PLD Effect in % 20 µM
[9] = Chlorocebus sabaeus, Vero C1008, read-out: PLD EC50 µM
[10] = Chlorocebus sabaeus, Vero C1008, 24 h, read-out: PLD_Effect(%) VERO-E6
[11] = Chlorocebus sabaeus, Vero C1008; read-out: PLD EC50
[12] = Chlorocebus sabaeus, Vero C1008, 24 h, read-out: PLD Effect in % 5 µM
[13] = Chlorocebus sabaeus, Vero C1008, 24 h, read-out: PLD Effect in % 10 µM
[14] = Chlorocebus sabaeus, Vero C1008, 24 h, read-out: PLD Effect in % 20 µM

SMILES | CaCo2 CPE inhibition % [1] | Vero-E6 CPE inhibition % [2] | activation at 5 µM [3, 6] [%] | activation at 10 µM [3, 7] [%] | activation at 20 µM [3, 8] [%] | EC50 [3, 9] [µM] | other results
COc1ccc(CCN(C)CCCOc2ccc(S(=O)(=O)c3c(C(C)C)c4ccccc4n3C)cc2)cc1OC [SR-33805 oxalate, reference compound] | 67.72% | 0.02 | – | – | – | – | PLD Effect in % 5 µM ([3]; 5 µM): 54.44%; PLD Effect in % 10 µM ([3]; 10 µM): 86.07%; PLD Effect in % 20 µM ([3]; 20 µM): 137.08%; EC50 ([3]; read-out: PLD EC50): 9.26 µM
CCCCN(CCCC)CCC(O)c1cc2c(Cl)cc(Cl)cc2c2cc(C(F)(F)F)ccc12 (stereo not drawn) [halofantrine HCl, reference compound] | 91.38% | 0.17% | 79.8 | 87 | 114 | 1.66 | –
O=C(NC1CCN(CCCCC2(C(=O)NCC(F)(F)F)c3ccccc3-c3ccccc32)CC1)c1ccccc1-c1ccc(C(F)(F)F)cc1 [Lomitapide, reference compound] | 77.37% | -0.39% | 82.8 | 169 | -28.6 | – | –
COc1cc(C)c2c(Oc3cccc(C(F)(F)F)c3)c(OC)cc(NC(C)CCCN)c2n1 (stereo not drawn) [tafenoquine, reference compound] | toxic | toxic | – | – | – | – | CaCo2 EC50 µM [1]: toxic; Vero-E6 EC50 µM [2]: toxic; PLD EC50 µM [3]: toxic; PLD Effect in % 5 µM ([3]; 5 µM): toxic; PLD Effect in % 10 µM ([3]; 10 µM): toxic; PLD Effect in % 20 µM ([3]; 20 µM): toxic
CN(C)C(=O)C(CCN1CCC(O)(c2ccc(Cl)cc2)CC1)(c1ccccc1)c1ccccc1 [loperamide hydrochloride, reference compound] | 58.93% | 5.03% | 55 | 75.4 | 86.1 | – | –
OCCNC1CCCc2c1[nH]c1ccc(-c3ccccc3)cc21 (stereo not drawn) [casin, reference compound] | 71.19% | – | – | – | – | – | PLD Effect in % 5 µM ([3]; 5 µM): 116.35%; PLD Effect in % 10 µM ([3]; 10 µM): 193.97%; PLD Effect in % 20 µM ([3]; 20 µM): 134.63%; EC50 ([3]; read-out: PLD EC50): 3.31 µM
Cc1cccc(C)c1NC(=O)CN1CCN(CCCC(c2ccc(F)cc2)c2ccc(F)cc2)CC1 [lidoflazine, reference compound] | – | 0.5% | 65.3 | 80.2 | 129 | 5.51 | activation at 10 µM [4]: 90.9%; activation at 10 µM [3, 10]: 52.6%
c1cc2c(cc1C1CCCCC1)c1c3n2CCNC3CCC1 (stereo not drawn) [tetrindole, reference compound] | 75.19% | -0.34% | – | – | – | – | PLD Effect in % 5 µM ([3]; 5 µM): 133.51%; PLD Effect in % 10 µM ([3]; 10 µM): 133.70%; PLD Effect in % 20 µM ([3]; 20 µM): -33.00%; EC50 ([3]; read-out: PLD EC50): 9.59 µM
CC(C)[C@H]1c2ccc(F)cc2CC[C@@]1(CCN(C)CCCc1nc2ccccc2[nH]1)OC(=O)C1CC1 [NNC-55-0396, reference compound] | 58.09% | 0% | – | – | – | – | EC50 ([2]; read-out: Vero-E6 EC50): 8210 nM; PLD Effect in % 5 µM ([3]; 5 µM): 87.06%; PLD Effect in % 10 µM ([3]; 10 µM): 154.81%; PLD Effect in % 20 µM ([3]; 20 µM): -43.08%; EC50 ([3]; read-out: PLD EC50): 6.28 µM
COc1ccc(NC(=O)c2ccc(-c3ccc(-c4noc(C)n4)cc3C)cc2)cc1N1CCN(C)CC1 [GR-127935, reference compound] | 53.73% | -0.76% | 136 | 162 | -40.2 | 1.12 | –
C[C@@H](NCCCc1cccc(C(F)(F)F)c1)c1cccc2ccccc12 [AMG-073 HCl, cinacalcet hydrochloride, reference compound] | – | -0.15 | 70.8 | 79.5 | 253 | – | activation at 10 µM [4]: 104%; pchembl_value (AC50) [5]: 6.14; AC50 ([5]; read-out: AC50 (value)): 730 nM; activation at 10 µM [3, 10]: 61.8%; EC50 [3, 11]: 18.6 µM
CCOc1cc(C(C)(C)C)ccc1C1=N[C@@](C)(c2ccc(Cl)cc2)[C@@](C)(c2ccc(Cl)cc2)N1C(=O)N1CCN(CCCS(C)(=O)=O)CC1 [RG7112 (RO50455337), reference compound] | 88.52% | 6.32 | 109 | 141 | 88.5 | – | EC50 [3, 11]: 2.56 µM
CCN(CC)CCCC(C)Nc1c2ccc(Cl)cc2nc2ccc(OC)cc12 (stereo not drawn) [quinacrine hydrochloride, reference compound] | – | -0.23% | 145 | 141 | -13.2 | 1.55 | –
OC(c1cc(C(F)(F)F)nc2c(C(F)(F)F)cccc12)C1CCCCN1 (stereo not drawn) [mefloquine hydrochloride, reference compound] | – | -0.32% | – | – | – | 1.48 | activation at 5 µM [3, 12]: 102%; activation at 10 µM [3, 13]: 188%; activation at 20 µM [3, 14]: 174%
COc1cc(C(=O)NC2CCN(C)CC2)c(F)cc1Nc1ncc2c(n1)N(C1CCCC1)CC(F)(F)C(=O)N2C [TAK-960, reference compound] | 91.64% | 2.67% | – | – | – | – | –
O=C(CCCN1CCC2(CC1)C(=O)N(Cc1cccc(F)c1)CN2c1ccccc1)c1ccc(F)cc1 [3'-fluorobenzylspiperone, reference compound] | 102.38 | – | – | – | – | 10.3 | CaCo2 CPE assay (active) [1]: active; PLD induction assay (active) [3]: active; activation at 5 µM [3, 12]: 61.8%; activation at 10 µM [3, 13]: 41.3%; activation at 20 µM [3, 14]: 8.92%
CCN(CC)CCO[C@H]1CC[C@@]2(C)C(=CC[C@@H]3[C@@H]2CC[C@]2(C)C(=O)CC[C@@H]32)C1 [U-18666A, reference compound] | 77.44% | – | – | – | – | – | PLD Effect in % 5 µM ([3]; 5 µM): 84.91%; PLD Effect in % 10 µM ([3]; 10 µM): 98.22%; PLD Effect in % 20 µM ([3]; 20 µM): 112.55%; EC50 ([3]; read-out: PLD EC50): 1.77 µM
Cc1ccc(NC(=O)c2ccc(CN3CCN(C)CC3)cc2)cc1Nc1nc(-c2cccnc2)cs1 [masitinib (AB1010), masitinib, reference compound] | 107.90% | – | 43.1 | 45.2 | 53.3 | – | CaCo2 CPE assay (active) [1]: active; PLD induction assay (active) [3]: active; EC50 [3, 11]: 2.57 µM
CN1CCC(Nc2ncc3ncnc(Nc4ccc(F)c(Cl)c4)c3n2)CC1 [BiBX-1382, reference compound] | – | 0.28% | 85.8 | 75.5 | -0.64 | 0.61 | –
C=CCN(C)CCCCCCOc1ccc(C(=O)c2ccc(Br)cc2)c(F)c1 [Ro 48-8071 (fumarate)] | – | – | – | – | – | – | activation at 10 µM [4]: 102%; Log IC50 (value) [5]: -8.19; pIC50 (value) [5]: 6.65; pchembl_value (Log IC50) [5]: 8.19; pchembl_value (pIC50) [5]: 6.65; activation at 10 µM [3, 10]: 92.9%
CCN(CC)CCOC(=O)C(c1ccccc1)C1CCCCC1 (stereo not drawn) [DROFENINE HYDROCHLORIDE] | – | – | – | – | – | – | activation at 10 µM [4]: 53.9%; pchembl_value (AC50) [5]: 6.66 and 7.47; activation at 10 µM [3, 10]: 52%
Nc1nc2c(c(N3CCNCC3)n1)CCC1=C2[C@@H]2CCCC[C@@H]2O1 [A-987306] | – | – | – | – | – | – | activation at 10 µM [4]: 52.2%; pKi (value) [5]: 7.1; pchembl_value (pKi) [5]: 7.10; pchembl_value (IC50) ([5]; value is the negative log10 of mol/L): 8.41 and 10.06 and 8.24; activation at 10 µM [3, 10]: 70.7%
C[C@@H]1CCCN1CCc1cc2cc(-c3ccc(C#N)cc3)ccc2o1 [ABT 239 tartrate] | – | – | – | – | – | – | activation at 10 µM [4]: 67.4%; Ki ([5]; read-out: Ki (value)): 0.45 nM; activation at 10 µM [3, 10]: 66.8%
